# Measurements from patent publication US5684026A, “Aminocyclopentane derivative” (priority 1994, dated 1997).
# Key:
# [1] = target: β-Glucosidase (Almonds, EC 3.2.1.21); assay: β-Glucosidase enzyme inhibition assay (p-nitrophenyl β-D-glucopyranoside); format: biochemical
# Experimental: (§1) By using a 96-well microplate, the absorbance (at 405 nm) of liberated p- or o-nitrophenol was measured with a microplate reader (MPR-4Ai, manufactured by Tosoh Corporation).
# Incubation was carried out at 37° C. by using a natural incubator (Compact NIB-10, manufactured by Iwaki Glass Co., Ltd.).
# (§2) The enzymes employed herein [α-glucosidase (Baker's yeast), β-glucosidase (Almonds), α-galactosidase (E. coli), β-galactosidase (E. coli) and β-galactosidase (Bovine Liver)] were all purchased from Sigma.
# (§3) The substrates (p- or o-nitrophenylglycoside) of these enzymes were all purchased from Sigma.
# 2) β-Glucosidase (Almonds, EC 3.2.1.21) [described in A. Kobayashi, Agr. Biol. Chem., 26, 203-207 (1962)]
# Into each well were introduced an aqueous solution of a sample (1 μl), a 0.33 mM solution of p-nitrophenyl β-D-glucopyranoside in a buffer (98 μl) and a (0.4 mg/ml) enzyme solution in the buffer (1 μl) to give a total volume of 100 μl. After incubating at 37° C. for 45 minutes, the reaction was ceased by adding a 1M aqueous solution of sodium carbonate (100 μl). Then the absorbance (A405) of p-nitrophenol liberated by this enzyme reaction was measured. To give the blank absorbance (Ablank), the sample (1 μl) and the substrate (99 μl) were incubated in the same manner and an aqueous solution of sodium carbonate (100 μl) was added followed by the measurement of the absorbance. […] As the buffer, a 0.1M acetate buffer solution (pH 5.0, prepared from NaOAc and AcOH) was employed. The IC50 was determined in the same manner as employed in the case of α-glucosidase.
# [2] = test system: α-Galactosidase (E. Coli, EC. 3.2.1.22); assay: α-Galactosidase enzyme inhibition assay (p-nitrophenyl α-D-galactopyranoside); format: biochemical; conditions: pH 6.5, room temperature, 15 minutes
# Experimental: as §1, §2, §3
# 3) α-Galactosidase (E. Coli, EC. 3.2.1.22) [described in H. Suzuki, S-C. Li and Y-T. Li, J. Biol. Chem., 245, 781-786 (1970)]
# Into each well were introduced an aqueous solution of a sample (1 μl), a buffer (74 μl), a 9.9 mM solution of p-nitrophenyl α-D-galactopyranoside in a buffer (20 μl) and a (50 μg/ml) enzyme solution in the buffer (5 μl) to give a total volume of 100 μl. After incubating the resulting mixture at room temperature (20°-30° C.) for 15 minutes, the reaction was ceased by adding a 0.2M borate buffer solution (pH 9.8, prepared from NaOH and H3 BO3, 100 μl). Then the absorbance (A405) of p-nitrophenol liberated by this enzyme reaction was measured. To give the blank absorbance (Ablank), the sample (1 μl), the substrate (20 μl) and the buffer solution (79 μl) were incubated in the same manner and the 0.2M borate buffer solution (100 μl) was added followed by the measurement of the absorbance. To give the control absorbance ([…]), on the other hand, water (1 μl), the substrate (20 μl), the buffer solution (74 μl) and the enzyme solution (5 μl) were incubated in the same manner and the borate buffer solution (100 μl) was added followed by the measurement of the absorbance. A 0.1M phosphate buffer solution (pH 6.5, prepared from KH2 PO4 and K2 HPO4) was employed as the buffer for the enzyme reaction. The IC50 was determined in the same manner as employed in the case of α-glucosidase.
# [3] = test system: B16 melanoma cells; assay: Cytotoxicity, survival ratio by Trypan blue staining; format: cell-based; conditions: 5-100 μM, 24 hours
# Experimental: After 24 hours, the medium was replaced with Dulbecco-modified Eagle medium containing each sample. The incubation was continued under the same conditions for additional 24 hours. Then the cells were harvested by adding EDTA, washed with PBS and stained with 0.3% Trypan blue solution to thereby determine the survival ratio of the cells.
smiles,measurement,setting,value
"OC[C@@]12OC(Nc3ccccc3)=N[C@@H]1[C@H](O)[C@@H](O)[C@@H]2O [Compound 1-2L, (1S,5R,6S,7R,8S)-1-hydroxymethyl-3-phenylamino-2-oxa-4-azabicyclo[3.3.0]oct-3-ene-6,7,8-triol]",IC50,"[1]; pH 5.0, 37° C., 45 minutes",> 300 µM
same,inhibitory activity against β-glucosidase (in words),[1]; summary of Table 1,weak inhibitory activities
same,IC50,[2],> 300 µM
same,cytotoxicity (in words),[3],no cytotoxicity
